Test results as given in patent US7189524B1, “Receptor ligands and methods of modulating receptors” (Amgen, Inc., priority 2002, dated 2007).

How the values were obtained:
[1] = system: human adipocytes; test: Inhibition of forskolin-stimulated lipolysis of human adipocytes (glycerol release); assay type: cell-based; details: Adipocyte, 0.5 μM Forskolin, 16 hours, glycerol concentration, read-out: EC50 (anti-lipolysis)
[2] = biological target: T1, TGR4b (Homo sapiens, UniProt Q8TDS4); test: Aequorin assay for intracellular calcium, CHO cells transfected with TGR4b; assay type: cell-based; details: summary of Table 1
T1 construct: expressed in transfected cells; host or cells: CHO cells, transient
Experimental: (§1) Aequorin catalyses the oxidation of coelenterazine, but only in the presence of Ca^2+ ions and thus can be used as an indicator of intracellular calcium levels. Briefly, the assays were performed using the following methodology.
(§2) CHO cells were transiently transfected with expression plasmids encoding TGR4b or TGR183 together with a plasmid encoding mitochondria-targeting apoaequorin. The plasmids were co-transfected with chimeric G protein Gαqi9, which has the C-terminal 9 amino acids from the Gαq protein replaced with the C-terminal 9 amino acids form the Gαi protein. Cells were harvested 24 hr later and loaded with coelenterazine for 2 hr at 37 C. Aequorin assay was performed on MicroLumat 96 luminometer (Perkin Elmer).

[3] = biological target: TGR183 (Homo sapiens, UniProt Q9BXC0); details: concentration of 50 μM, FIG. 3
Experimental: as §1, §2

T1 sequence (Q8TDS4 whole entry): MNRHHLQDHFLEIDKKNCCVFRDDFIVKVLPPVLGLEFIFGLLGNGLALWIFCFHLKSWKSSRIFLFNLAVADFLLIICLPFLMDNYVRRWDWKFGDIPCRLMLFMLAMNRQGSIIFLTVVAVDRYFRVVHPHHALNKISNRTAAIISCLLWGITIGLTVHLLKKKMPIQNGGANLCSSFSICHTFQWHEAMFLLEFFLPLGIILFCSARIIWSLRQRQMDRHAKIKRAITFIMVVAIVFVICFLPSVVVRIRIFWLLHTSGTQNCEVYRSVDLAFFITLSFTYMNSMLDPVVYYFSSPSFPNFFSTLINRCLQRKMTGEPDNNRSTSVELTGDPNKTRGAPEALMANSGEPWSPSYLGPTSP
TGR183, sequence (Q9BXC0 whole entry): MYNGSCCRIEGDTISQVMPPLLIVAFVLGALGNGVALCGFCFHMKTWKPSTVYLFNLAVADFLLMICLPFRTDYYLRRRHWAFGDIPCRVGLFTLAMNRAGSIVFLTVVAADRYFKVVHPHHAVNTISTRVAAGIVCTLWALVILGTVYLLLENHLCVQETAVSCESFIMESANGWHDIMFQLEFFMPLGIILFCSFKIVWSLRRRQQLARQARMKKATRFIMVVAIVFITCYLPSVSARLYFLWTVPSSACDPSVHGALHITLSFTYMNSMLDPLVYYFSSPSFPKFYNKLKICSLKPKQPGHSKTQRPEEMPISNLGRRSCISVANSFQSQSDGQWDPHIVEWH

Structure (SMILES) | EC50 [1] | activity on TGR4b in words (binding and activity assays) [2] | TGR183-mediated increase in intracellular calcium [3]
Cc1cnc(C(=O)O)c[n+]1[O-] | 6000 nM | – | –
O=C(O)c1cnccn1 [2-pyrazinecarboxylic acid] | 6500 nM | also active in binding and activity assays | –
Cl.O=C(O)Cc1cccnc1 [3-pyridineacetic acid HCl] | 770 nM | also exhibits activity | –
O=C(O)c1cncc(F)c1 [5-fluoro nicotinic acid] | – | much lower potency | –
NC(=O)c1cccnc1 [Nicotinamide] | – | completely inactive | –
O=C(O)c1ccnnc1 [Pyridazine 4-carboxylic acid] | 2800 nM | also active in binding and activity assays | –
O=C(O)c1cccnc1 [nicotinic acid, 3-pyridinecarboxylic acid] | 62 nM | – | stimulated a TGR183-mediated increase in intracellular calcium
Cl.O=C(Cl)c1cccnc1 [nicotinoyl chloride HCl] | 150 nM | agonist and binding activity similar to that of nicotinic acid | –
